Measured values published in patent US20100210597A1, “C21-Deoxy Ansamycin Derivatives as Antitumor Agents” (priority 2007, published 2010).
Values joined by “and” are separate entries in the source; they are usually repeats but may differ in a detail not shown here. Equal entries are not always repeated. Where two headings read alike, the source gives them in different places.

What was measured:
[1] = Aqueous solubility by direct dissolution; assay type: physicochemical; conditions: water, deionised water; limit not tested
Excerpt: It is not possible to measure the solubility of 20 and 23 by this method due to their intrinsic high aqueous solubility.

[2] = In vitro Caco-2 assay for cell permeability; assay type: in vitro ADME; conditions: human, Caco-2, pH 7.4, 10 uM, 2 hour incubation
Procedure: (§1) Caco-2 cells (ATCC Cat. # HTB-37) were grown on fibrillar collagen-coated, microporous, polycarbonate membranes in 24-well BioCaot™ insert plates. Following 5-day growth in Eagle's minimum essential medium supplemented with 10% FBS, the cells were exposed to BioCoat Enterocyte Differentiation Medium (BD, Cat. # 05496) for 2 days to induce enterocytic differentiation. Prior to dosing, the transepithelial electric resistance (TEER) of the Caco-2 cells in each well was measured to ensure the quality of the monolayers.
(§2) The stock solutions of test compounds were prepared at 3 mM in DMSO. Dosing solutions were prepared in the permeability assay buffer at 10 μm. The permeability assay buffer was Hank's balanced salt solution containing 10 mM HEPES at a pH of 7.4±0.2.
(§3) The Caco-2 cells were dosed with the test compounds on either apical side (for A-to-B permeation) or basolateral side (for B-to-A permeation) and incubated at 37° C. with 5% CO2 and 90% relative humidity. The testing for each compound was performed in duplicate. After 2 hour incubation, a 20-μL sample was taken from each of dosing solutions and both donor and receiver compartments. To ensure the validity of the Caco-2 assay, propranolol and vinblastine were used as a high- and a low- to medium-permeability positive control, respectively. Vinblastine also served as a P-gp substrate, tested in conjunction with a P-gp inhibitor, verapamil.
(§4) To quantify test compounds by LC/MS/MS, a related geldanamycin-like compound, 17-methoxyethylamino geldanamycin (Schnur et al., 1995), was used as the internal standard. The calculation of permeability of each compound involved only the concentration ratio of the same test compound, the concentration ratio was expressed in the peak area ratio of the test compound to the internal standard. The peak area ratio of each compound was derived by LC-MS/MS.
(§5) The apparent permeability coefficient Papp was calculated as below: […]
(§6) dCr: cumulative concentration in the receiver compartment in M. dt: duration of the assay (i.e., 7200 seconds). Vr: volume of the receiver compartment in cm^3. A: area of the cell monolayer (0.31 cm^2 for 24-well BioCoat™ plate). C0: concentration of the dosing solution in M.
(§7) The in vitro permeability of 20 and the parent 17 were assayed using caco-2 cells, as described in the general methods. All compounds were analysed at a concentration of 10 uM.

[3] = tested on: Caco-2 cells; experiment: In vitro Caco-2 assay for cell permeability; assay type: in vitro ADME; conditions: 10 uM, 2 hour incubation
Procedure: as §1, §2, §3, §4, §5, §6, §7

[4] = tested on: LXF 1121L; experiment: Monolayer proliferation assay (modified propidium iodide), LXF 1121L; assay type: cell-based, human; conditions: average of 2 experiments
Procedure: (§8) In vitro evaluation of compounds for anticancer activity in a panel of human tumour cell lines in a monolayer proliferation assay was carried out at the Oncotest Testing Facility, Institute for Experimental Oncology, Oncotest GmbH, Freiburg.
(§9) The Oncotest cell lines are established from human tumor xenografts as described by Roth et al., (1999). The origin of the donor xenografts is described by Fiebig et al., (1999). Other cell lines are either obtained from the NCl (DU145, MCF-7) or purchased from DSMZ, Braunschweig, Germany.
(§10) All cell lines, unless otherwise specified, are grown at 37° C. in a humidified atmosphere (95% air, 5% CO2) in a ‘ready-mix’ medium containing RPMI 1640 medium, 10% fetal calf serum, and 0.1 mg/mL gentamicin (PAA, Cölbe, Germany).
(§11) A modified propidium iodide assay was used to assess the effects of the test compound(s) on the growth of six human tumour cell lines (Dengler et al., (1995)).
(§12) Briefly, cells are harvested from exponential phase cultures by trypsinization, counted and plated in 96 well flat-bottomed microtitre plates at a cell density dependent on the cell line (5-10.000 viable cells/well). After 24 h recovery to allow the cells to resume exponential growth, 0.010 mL of culture medium (6 control wells per plate) or culture medium containing macbecin were added to the wells. Each concentration is plated in triplicate. Compounds were applied in two concentrations (0.001 mM and 0.01 mM). Following 4 days of continuous exposure, cell culture medium with or without test compound was replaced by 0.2 mL of an aqueous propidium iodide (P1) solution (7 mg/L). To measure the proportion of living cells, cells were permeabilized by freezing the plates. After thawing the plates, fluorescence was measured using the Cytofluor 4000 microplate reader (excitation 530 nm, emission 620 nm), giving a direct relationship to the total number of viable cells.
(§13) Growth inhibition is expressed as treated/control×100 (% T/C).
(§14) In vitro evaluation of the test compound, 20, for anticancer activity in a panel of human tumour cell lines in a monolayer proliferation assay was carried out as described in the general methods using a modified propidium iodide assay.

[5] = tested on: MCF-7; experiment: Monolayer proliferation assay (modified propidium iodide), MCF-7; assay type: cell-based, human; conditions: average of 2 experiments
Procedure: as §8, §9, §10, §11, §12, §13, §14

[6] = tested on: MEXF 394NL; experiment: Monolayer proliferation assay (modified propidium iodide), MEXF 394NL; assay type: cell-based, human; conditions: average of 2 experiments
Procedure: as §8, §9, §10, §11, §12, §13, §14

[7] = tested on: DU145; experiment: Monolayer proliferation assay (modified propidium iodide), DU145; assay type: cell-based, human; conditions: average of 2 experiments
Procedure: as §8, §9, §10, §11, §12, §13, §14

[8] = tested on: panel of human tumour cell lines; experiment: Monolayer proliferation assay, mean across cell line panel; assay type: cell-based; conditions: geometric mean of all replicates across six cell lines
Procedure: as §8, §9, §10, §11
Briefly, cells are harvested from exponential phase cultures by trypsinization, counted and plated in 96 well flat-bottomed microtitre plates at a cell density dependent on the cell line (5-10.000 viable cells/well). […] After thawing the plates, fluorescence was measured using the Cytofluor 4000 microplate reader (excitation 530 nm, emission 620 nm), giving a direct relationship to the total number of viable cells.
Growth inhibition is expressed as treated/control×100 (% T/C). […]

CO[C@H]1C[C@H](C)Cc2cc(cc(OP(=O)(O)O)c2)NC(=O)/C(C)=C/CC[C@H](C)[C@@H](OC(N)=O)/C(C)=C/[C@H](C)[C@H]1O [Compound 20, 4,5-dihydro-11-O-demethyl-15-demethoxy-18,21-didehydro-21-deoxomacbecin-18-phosphate]
solubility [1]: ≥ 10000 µg/mL and ≥ 17000 µM | efflux ratio at 2 h, 10 uM ([2]; read-out: Efflux ratio Papp(B → A)/Papp(A → B)): 0.7 | Papp A→B at 2 h, 10 uM ([2]; read-out: Permeability Apical to Basolateral Papp(A → B) Mean): 0.49 ×10⁻⁶ cm/s | Papp A→B at 2 h, 10 uM ([2]; read-out: Permeability Apical to Basolateral Papp(A → B) Rep. 1): 0.67 ×10⁻⁶ cm/s | Papp A→B at 2 h, 10 uM ([2]; read-out: Permeability Apical to Basolateral Papp(A → B) Rep. 2): 0.31 ×10⁻⁶ cm/s | Papp B→A at 2 h, 10 uM ([2]; read-out: Permeability Basolateral to Apical Papp(B → A) Mean): 0.35 ×10⁻⁶ cm/s | Papp B→A at 2 h, 10 uM ([2]; read-out: Permeability Basolateral to Apical Papp(B → A) Rep. 1): 0.22 ×10⁻⁶ cm/s | Papp B→A at 2 h, 10 uM ([2]; read-out: Permeability Basolateral to Apical Papp(B → A) Rep. 2): 0.48 ×10⁻⁶ cm/s | Efflux Limited [3]: No | Test/Control (%) at drug concentration (μg/mL) ([4]; 0.01 μg/mL): 103% | Test/Control (%) at drug concentration (μg/mL) ([4]; 0.1 μg/mL): 58% | Test/Control (%) at drug concentration (μg/mL) ([4]; 1 μg/mL): 15% | Test/Control (%) at drug concentration (μg/mL) ([4]; 10 μg/mL): 14% | Test/Control (%) at drug concentration (μg/mL) ([4]; 100 μg/mL): 5% | Test/Control (%) at drug concentration (μg/mL) ([5]; MCF-7, 0.01 μg/mL): 98% | Test/Control (%) at drug concentration (μg/mL) ([5]; MCF-7, 0.1 μg/mL): 38% | Test/Control (%) at drug concentration (μg/mL) ([5]; MCF-7, 1 μg/mL): 14% | Test/Control (%) at drug concentration (μg/mL) ([5]; MCF-7, 10 μg/mL): 13% | Test/Control (%) at drug concentration (μg/mL) ([5]; MCF-7, 100 μg/mL): 9% | Test/Control (%) at drug concentration (μg/mL) ([6]; 0.01 μg/mL): 102% | Test/Control (%) at drug concentration (μg/mL) ([6]; 0.1 μg/mL): 50% | Test/Control (%) at drug concentration (μg/mL) ([6]; 1 μg/mL): 17% | Test/Control (%) at drug concentration (μg/mL) ([6]; 10 μg/mL): 16% | Test/Control (%) at drug concentration (μg/mL) ([6]; 100 μg/mL): 3% | Test/Control (%) at drug concentration (μg/mL) ([7]; DU145, 0.01 μg/mL): 99% | Test/Control (%) at drug concentration (μg/mL) ([7]; DU145, 0.1 μg/mL): 53% | Test/Control (%) at drug concentration (μg/mL) ([7]; DU145, 1 μg/mL): 8% | Test/Control (%) at drug concentration (μg/mL) ([7]; DU145, 10 μg/mL): 9% | Test/Control (%) at drug concentration (μg/mL) ([7]; DU145, 100 μg/mL): 3% | average IC70 value across the cell-line panel [8]: 0.344 µg/mL
